In US20260022334A1, “COMPOSITION, METHOD, AND APPLICATION THEREOF FOR IMPROVING THE QUALITY OF IN VITRO MATURATION OF OOCYTES AND PREGNANCY RATE OF EMBRYOS AFTER IN VITRO FERTILIZATION” (CHINA AGRICULTURAL UNIVERSITY, priority 2024, published 2026):
Marks after values point to notes of the source that are not given here.

Tests used:
[1] = system: bovine oocytes (COCs); assay: In vitro maturation of bovine oocytes, in vitro fertilization and embryo culture: embryo development rate; format: cell-based; details: for D8 blastocyst rate (%): 8 d postinsemination, number of blastocysts/number of oocytes; for effect on 48-h cleavage rate compared with the control group / effect on blastocyst development efficiency compared with the control group: in words; for 48-h cleavage rate (%): number of two-cell embryos/number of oocytes
Description: (§1) • Control group: a routine in vitro maturation group; • Treatment group 1: a VitC (100 μg/mL)—only administration group; • Treatment group 2: an L-carnitine (1 mg/mL)—only administration group; • Treatment group 3: a THPO (200 ng/mL)—only administration group; • Treatment group 4: a VitC (50 μg/mL) and L-carnitine (500 μg/mL) combined administration group; • Treatment group 5: a VitC (50 μg/mL) and THPO (100 ng/ml) combined administration group; • Treatment group 6: an L-carnitine (500 μg/mL) and THPO (100 ng/mL) combined administration group; • Treatment group 7: a VitC (33.3 μg/mL), L-carnitine (333.3 μg/mL), and THPO (66.7 ng/mL) combined administration group.
(§2) The control group was a basal in vitro maturation medium, and the treatment groups (1-7) were prepared by adding different components or combined components to the basal maturation medium.
Bovine ovaries were collected from a local slaughterhouse (Dachang Hui Autonomous County, Hebei Province, China) and transported to the laboratory within two hours in saline solution containing penicillin and streptomycin. In the laboratory, bovine COCs were aspirated from follicles with a diameter of 2-8 mm to M199-HEPES containing 20 μg/mL heparin sodium, 44 μg/mL sodium pyruvate, 70 μg/mL penicillin and 50 μg/mL streptomycin. The aspirated follicular fluid was placed in 50 ml conical tubes and maintained for a period for sedimentation. The upper portion of the liquid was removed and the remaining portion was then transferred to wash buffer. COCs with a homogenous, evenly granulated ooplasm surrounded by at least three layers of compact cumulus cells were selected under a stereomicroscope for experiments. COCs were washed three times in BO-IVM medium and incubated for 22 h at 38.5° C. in a humidified atmosphere under 5% CO2 in groups of 50 containing 500 μL BO-IVM medium in four-well dishes covered with mineral oil.
After 22 h of IVM, 20 COCs were transferred to 100 μL BO-IVF medium covered with mineral oil in Petri dish (60×15 mm). Frozen-thawed sperm was purified using BO-SemenPrep. Spermatozoa were selected by Percoll method and the final concentration was adjusted to 1×10^6 in each drop. They were co-incubated in BO-IVF medium with humidified 5% CO2 in air at 38.5° C. for 18 h. Thereafter, the presumptive zygotes were transferred to BO-IVC medium in four-well dishes covered with mineral oil, and incubated with humidified 5% CO2 in air at 38.5° C. for 8 days. The cleavage rate was determined at 48 h and the blastocyst rate was estimated at 8d postinsemination.

[2] = system: ovine oocytes (cumulus-oocyte complexes); assay: In vitro maturation of ovine oocytes, in vitro fertilization and embryo culture: embryo development rate; format: cell-based, sheep; details: mean ± standard error; for Cleavage rate (%): 48 h after IVF, modulators added to in vitro maturation medium; for D7 blastocyst rate (%): day 7 of culture
Description: Ovine ovaries were collected in a slaughterhouse, placed in normal saline at 35° C., and transported to the laboratory within 2 h. The ovaries were washed three times with normal saline, and follicles were punctured using a 20 G needle containing 5 mL of oocyte collection medium to release cumulus-oocyte complexes. The COCs with uniform cytoplasm and at least 3 layers of cumulus cells were collected Under a stereomicroscope.
as §1, with “maturation group.” for “maturation group;”, “administration group.” for “administration group;”, “(100 ng/ml)” for “(100 ng/mL)”
as §2
The collected ovine oocytes were washed three times with washing medium, then washed 3 times with the basal in vitro oocyte maturation medium pre-equilibrated for 3 h in advance, transferred to the in vitro maturation culture mediums of the control and experimental groups, and incubated in a 5% CO2, 38.5° C. incubator with saturated humidity for 22-24 h. Four-well plates were used for culture, and each well contained 600 μL of in vitro maturation culture medium and 30-35 ovine cumulus-oocyte complexes, and was covered with 300 μL of mineral oil. In vitro maturation of ovine oocytes was performed according to different groups.
For the control group, the basal in vitro oocyte maturation medium was used. The basal in vitro oocyte maturation medium was prepared as follows: TCM199+10% estrus ovine serum+1 μg/mL follicle-stimulating hormone+1 μg/mL luteinizing hormone+1 μg/mL β-estradiol+12 μg/mL DL-cysteine+100 μg/mL streptomycin+100 IU/mL penicillin.
After in vitro maturation, the matured oocytes were subjected to in vitro fertilization (IVF). Briefly, COCs were washed three times in synthetic oviductal fluid (SOF) medium with 0.2% hyaluronidase to remove cumulus cells and transferred into the IVF medium, which consisted of synthetic oviduct fluid (SOF) medium containing 2% estrus sheep serum (ESS), 3 mg/mL BSA, 6 IU/mL heparin sodium and 50 IU/mL gentamicin. For IVF, frozen semen was removed from the liquid nitrogen and thawed in a water bath at 39° C. for 1 min. Then, the sperm diluted with IVF medium and swimming up for 30 min at 38.5° C. in a humidified atmosphere at 5% CO2. The upper layer of semen was transferred into a 1.5 mL tube and then centrifuge for 5 min at 2000 rpm. The spermatozoa were carefully collected from the bottom of the centrifuge tube and added into each IVF medium with a final concentration of approximately 1×10^6 sperm/mL. Then, the oocyte and sperm were co-incubated for 20 h at 38.5° C. with 5% CO2 in a humidified atmosphere. All reagents were purchased from Sigma-Aldrich.
After IVF, presumptive zygotes were washed three times in IVC medium and then transferred to SOF medium supplemented with 1% BME-essential amino acids, 1% MEM-nonessential amino acids, 1 mM glutamine and 3 mg/mL BSA and cultured at 38.6° C. in a humidified environment with an 88% N2, 5% CO2, 7% O2. The cleavage rate and blastocyst rate were recorded at 48 h and 6-7 d after IVF. After 48 h of culture, the cleavage rate was calculated. The culture was continued until day 7, and the blastocyst rate was calculated.

[3] = system: ovine blastocysts; assay: Total number of blastocyst cells (DAPI staining) after in vitro maturation of ovine oocytes; format: cell-based, sheep; details: ovine 7d blastocysts, FIG. 3
Excerpt: FIG. 3 Statistical analysis of the total number of blastocyst cells after different treatments of sheep oocyte in vitro maturation. Among them, the control group is a routine in vitro maturation group, and treatment groups 1-7 are: VitC alone group, L-carnitine alone group, THPO alone group, VitC and L-carnitine combined administration group, VitC and THPO combined administration group, L-carnitine and THPO combined administration group, VitC, L-carnitine, and THPO combined administration group. The total number of blastocyst cells were obtained by counting cells after DAPI immunofluorescence staining.
as §1, with “maturation group.” for “maturation group;”, “administration group.” for “administration group;”, “(100 ng/ml)” for “(100 ng/mL)”
The 7d blastocysts were collected, washed 3 times with PBS containing 1 mg/ml PVA (PBS-PVA), and stained with DAPI, and the total blastocyst cell number was then determined. Specifically, the zona pellucida was removed with Tyrode's medium, and the blastocysts were then fixed in PBS containing 4% polyformaldehyde for 30 min and permeabilized using PBS containing 0.5% TritonX-100 for 20 min at room temperature. The nuclei of the blastocysts were stained with 1 μg/mL DAPI, incubated for 5 min in the dark, and then mounted onto slides. DAPI cells were observed and counted under a fluorescence microscope.

[4] = system: recipient ewes; assay: Ovine embryo transfer and pregnancy assessment; format: in vivo, sheep; details: for Pregnancy rate (%): 45 d after embryo transfer; for Number of pregnancies: B-ultrasonography 45 d after embryo transfer
Description: as §1, with “maturation group.” for “maturation group;”, “administration group.” for “administration group;”, “(100 ng/ml)” for “(100 ng/mL)”
Transferrable embryo were selected and one blastocyst was transferred into recipient ewes using a laparoscopic procedure. Prior to embryo transfer, the ewes were fasted for at least 20 h. The embryos were transplanted into recipients with an assistant of endoscopic apparatus. The conception was detected at 45 d after embryo transfer by using B-ultrasonography and the embryo transfer pregnancy rate was calculated using the formula: […]

[5] = system: bovine recipients; assay: Bovine embryo transfer and pregnancy rate assessment; format: in vivo; details: for Number of pregnancies: B-mode ultrasonography days 45-50; for Pregnancy rate (%): days 45-50, pregnant/recipient female animals
Description: as §1
The bovine recipients were restrained and anesthetized according to requirement of sartificial insemination. After the vulva was cleaned and disinfected, the cervix was opened and the fallopian tubes were flushed. The embryo transfer catheter was inserted deep into one uterine horn using the rectal palpation method. The plunger of a syringe connected to embryos transfer catheter was pushed to inject the embryos that had developed to the blastocyst stage after in vitro fertilization, and the embryo transfer catheter was then withdrawn. The pregnancy status was assessed by B-mode ultrasonography on days 45-50 of pregnancy, and the pregnancy rate was calculated.

Compound | D8 blastocyst rate (%) [1] | effect on 48-h cleavage rate compared with the control group [1] | effect on blastocyst development efficiency compared with the control group [1] | 48-h cleavage rate (%) [1] [%] | Cleavage rate (%) [2] | D7 blastocyst rate (%) [2] | total number of blastocyst cells [3] | Pregnancy rate (%) [4] | Number of pregnancies [4] | Number of pregnancies [5] | Pregnancy rate (%) [5] | effect on pregnancy rate after embryo transfer compared with the control group ([5]; in words)
O=C1O[C@H]([C@@H](O)CO)C(O)=C1O [Treatment group 1, vitamin C] | 33.1 ± 1.3^b % | did not affect | enhanced | 68.7 ± 3.1 | 75.64 ± 2.83^a % | 38.79 ± 1.97^b % | 80.6±3.2 | 50.0^a % | 25 | 11 | 42.3%^a | 
C[N+](C)(C)C[C@H](O)CC(=O)[O-] [Treatment group 2, L-carnitine] | 32.4 ± 0.8^b % | did not affect | enhanced | 69.5 ± 4.3 | 74.32 ± 2.31^a % | 37.61 ± 1.85^b % | 82.6±2.7 | 54.2^a % | 26 | 12 | 46.2%^b | can improve
Thrombopoietin [Treatment group 3] | 32.2 ± 2.0^b % |  |  | 67.4 ± 3.8 | 75.38 ± 2.43^a % | 38.01 ± 1.50^b % | 79.4±2.3 | 53.1^a % | 26 | 11 | 42.3%^a | 
